From EP1198478B1, “SOMATOSTATIN ANALOGS AND THEIR USE FOR THE TREATMENT OF CANCER” (Dabur Research Foundation, priority 2000, dated 2002)
Where “and” joins values, the source holds several entries; their conditions need not be identical. Equal entries are not always repeated.

Experiments:
[1] = tested on: PTC (primary human colon cancer cell line); experiment: MTT cytotoxicity assay, PTC cells; assay type: cell-based; conditions: 48 hours
From the text: (§1) The cytotoxic effect of peptides SEQ ID NO: 2, SEQ ID NO: 3, SEQ ID NO: 6, and SEQ ID NO: 9, was studied by MTT assay which is based on the principle of uptake of MTT [3-[4,5-dimethylthiazol-2-yl]-2,5-diphenyl tetrazolium bromide], a tetrazolium salt by the metabolically active cells where it is metabolized by active mitochondria into a blue colored formazan product which can be read spectrophotometrically. Briefly, tumor cells PTC (primary human colon cancer cell line), KB (Oral squamous), U87MG (Glioblastoma), HBL100 (Breast), HeP2 (Laryngeal), ECV304 (Endothelial), PA-1 (Ovary) and L132 (Lung) were incubated with the peptide analogs for 48 hours at 37°C in a 96-well culture plate, followed by the addition of 100 µg MTT and further incubation of 1 hour. The formazan crystals formed inside the cells were dissolved with a detergent comprising 10% Sodium dodecyl sulfate and 0.01 N HCl and optical density read on a multiscan ELISA reader. The optical density was directly proportional to the number of proliferating and metabolically active cells.

[2] = tested on: KB (Oral squamous); experiment: MTT cytotoxicity assay, KB cells; assay type: cell-based; conditions: 48 hours
From the text: as §1

[3] = tested on: U87MG (Glioblastoma); experiment: MTT cytotoxicity assay, U87MG cells; assay type: cell-based; conditions: 48 hours
From the text: as §1

[4] = tested on: HBL100 (Breast); experiment: MTT cytotoxicity assay, HBL100 cells; assay type: cell-based; conditions: 48 hours
From the text: as §1

[5] = tested on: HeP2 (Laryngeal); experiment: MTT cytotoxicity assay, HeP2 cells; assay type: cell-based; conditions: 48 hours
From the text: as §1

[6] = tested on: L132 (Lung); experiment: MTT cytotoxicity assay, L132 cells; assay type: cell-based; conditions: 48 hours
From the text: as §1

[7] = tested on: PA-1 (Ovary); experiment: MTT cytotoxicity assay, PA-1 cells; assay type: cell-based; conditions: 48 hours
From the text: as §1

[8] = tested on: ECV304 (Endothelial); experiment: MTT cytotoxicity assay, ECV304 cells; assay type: cell-based; conditions: 48 hours
From the text: as §1

[9] = tested on: human colon adenocarcinoma (PTC) xenografts; experiment: In vivo antitumor activity on primary tumor (colon) xenografted mice; set-up: species or system Balb/c athymic mice; conditions: for tumor volumes, Avg: average of three animals; for tumor volumes of individual tumor bearing animals: individual animals (IV, V, VI for SEQ ID NO: 2; I, II, III for SEQ ID NO: 3)
Description: The antitumor activity of SEQ ID NO:2 and SEQ ID NO:3 was studied in human colon adenocarcinoma (PTC) xenografts in nude mice. PTC tumor xenografts were grown in Balb/c athymic mice by subcutaneous inoculation of a single cell suspension of PTC cells (15 X10^6 cells/ 100µl). The tumor bearing animals were divided into 3 groups of three animals each including one group comprising untreated control animals. Treatment with novel somatostatin analogs was initiated when the average tumor volumes, as measured using a vernier caliper, were between 400-800 mm^3. Solutions of SEQ ID NO:2 and SEQ ID NO:3 were prepared at a concentration of 85 µg/ml and intravenously administered to the assigned group of tumor bearing animals at a dose of 8.5 µg/100 µl twice a day so that the total dose of […] was administered to each animal. The treatment was continued for a period of 10 days.
The antitumor activity of the compounds was monitored by measuring tumor volumes every fourth day using the formula W*W*L*.04 (W = smaller diameter, L = larger diameter). The percentage inhibition of tumor growth was calculated using the formula (1-tumor volume-treated/tumor volume control)* 100.

[10] = day 9, intravenously 8.5 µg/100 µl twice a day, 10 days
[11] = day 13, intravenously 8.5 µg/100 µl twice a day, 10 days
[12] = day 18, intravenously 8.5 µg/100 µl twice a day, 10 days
[13] = day 21, intravenously 8.5 µg/100 µl twice a day, 10 days

“D-Phe-Cys-Tyr-D-Trp-Lys-Ac5c-Pen-Thr-NH2 [SEQ ID NO: 6]” gave a Percentage cytotoxicity ([1]; 1nM) of 12±1.5%, a Percentage cytotoxicity ([1]; 10 nM) of 11 ± 7.1% and a Percentage cytotoxicity ([1]; 1µM) of 9 ± 2.1%. The Percentage cytotoxicity ([1]; 100n M) was 8 ± 5.2%, the Percentage cytotoxicity ([2]; 1nM) was 28.0 ± 1.2% and the Percentage cytotoxicity ([2]; 10 nM) was 23.0 ± 4.8%. For the same substance, the Percentage cytotoxicity ([2]; 1µM) was 12.9 ± 1.1%, the Percentage cytotoxicity ([2]; 100n M) was 19.0 ± 5.2% and the Percentage cytotoxicity ([3]; 1nM) was 39.0 ± 3.5%. For the same substance, the Percentage cytotoxicity ([3]; 10 nM) was 40.4 ± 2.4%, the Percentage cytotoxicity ([3]; 1µM) was 39.5 ± 1.2% and the Percentage cytotoxicity ([3]; 100n M) was 42.9 ± 1.4%. For the same substance, the Percentage cytotoxicity ([4]; 1nM) was 15.7 ± 4.5%, the Percentage cytotoxicity ([4]; 10 nM) was 14.5 ± 2.8% and the Percentage cytotoxicity ([4]; 1µM) was 8.0 ± 1.4%. For the same substance, the Percentage cytotoxicity ([4]; 100n M) was 12.6 ± 3.2%, the Percentage cytotoxicity ([5]; 1nM) was 8.0 ± 3.6% and the Percentage cytotoxicity ([5]; 10 nM) was 14.8 ± 4.4%. The Percentage cytotoxicity ([5]; 1µM) was 10.6 ± 2.4%, the Percentage cytotoxicity ([5]; 100n M) was 11.0 ± 2.5% and the Percentage cytotoxicity ([6]; 1nM) was 14.9 ± 1.2%. For the same substance, the Percentage cytotoxicity ([6]; 10 nM) was 25.7 ± 4.8%, the Percentage cytotoxicity ([6]; 1µM) was 13.7 ± 5.8% and the Percentage cytotoxicity ([6]; 100n M) was 22.9 ± 2.6%. It also gave a Percentage cytotoxicity ([7]; 1nM) of 19.4 ± 1.0%, a Percentage cytotoxicity ([7]; 10 nM) of 25.9 ± 1.4% and a Percentage cytotoxicity ([7]; 1µM) of 8.0 ± 3.3%. The Percentage cytotoxicity ([7]; 100n M) was 22.6 ± 2.2%, the Percentage cytotoxicity ([8]; 1nM) was 18.9 ± 3.9% and the Percentage cytotoxicity ([8]; 10 nM) was 24.9 ± 3.8%. For the same substance, the Percentage cytotoxicity ([8]; 1µM) was 7.9 ± 1.6% and the Percentage cytotoxicity ([8]; 100n M) was 13.9 ± 2.9%.
With “D-Phe-Cys-Tyr-D-Trp-Orn-Ac5c-Pen-Thr-NH2 [SEQ ID NO: 3]” the Percentage cytotoxicity ([1]; 1nM) was 15 ± 1.5%, the Percentage cytotoxicity ([1]; 10 nM) was 11 ± 0.8% and the Percentage cytotoxicity ([1]; 1µM) was 13 ± 2.3%. The Percentage cytotoxicity ([1]; 100n M) was 13 ± 1.3%, the Percentage cytotoxicity ([2]; 1nM) was 29.8 ± 1.2% and the Percentage cytotoxicity ([2]; 10 nM) was 25.0 ± 4.6%. The Percentage cytotoxicity ([2]; 1µM) was 17.9 ± 1.3%, the Percentage cytotoxicity ([2]; 100n M) was 19.4 ± 5.2% and the Percentage cytotoxicity ([3]; 1nM) was 44.2 ± 3.5%. For the same substance, the Percentage cytotoxicity ([3]; 10 nM) was 45.0 ± 2.4%, the Percentage cytotoxicity ([3]; 1µM) was 28.9 ± 1.2% and the Percentage cytotoxicity ([3]; 100n M) was 42.4 ± 1.4%. The Percentage cytotoxicity ([4]; 1nM) was 14.6 ± 4.5%, the Percentage cytotoxicity ([4]; 10 nM) was 17.5 ± 2.8% and the Percentage cytotoxicity ([4]; 1µM) was 10.6 ± 1.4%. It also gave a Percentage cytotoxicity ([4]; 100n M) of 11.8±3.2%, a Percentage cytotoxicity ([5]; 1nM) of 13.9 ± 3.6% and a Percentage cytotoxicity ([5]; 10 nM) of 26.8 ± 4.4%. For the same substance, the Percentage cytotoxicity ([5]; 1µM) was 10.0 ± 2.4%, the Percentage cytotoxicity ([5]; 100n M) was 25.8 ± 2.5% and the Percentage cytotoxicity ([6]; 1nM) was 19.0 ± 2.2%. It also gave a Percentage cytotoxicity ([6]; 10 nM) of 28.6 ± 4.2%, a Percentage cytotoxicity ([6]; 1µM) of 19.8 ± 5.5% and a Percentage cytotoxicity ([6]; 100n M) of 25.9 ± 2.6%. The Percentage cytotoxicity ([7]; 1nM) was 29.5 ± 1.0%, the Percentage cytotoxicity ([7]; 10 nM) was 39.5 ± 3.4% and the Percentage cytotoxicity ([7]; 1µM) was 19.5 ± 3.3%. The Percentage cytotoxicity ([7]; 100n M) was 38.5 ± 2.2%, the Percentage cytotoxicity ([8]; 1nM) was 13.9 ± 3.9% and the Percentage cytotoxicity ([8]; 10 nM) was 23.9 ± 1.3%. For the same substance, the Percentage cytotoxicity ([8]; 1µM) was 14.9 ± 1.6%, the Percentage cytotoxicity ([8]; 100n M) was 15.9 ± 2.9% and the “tumor volumes, Avg” value ([9]; day 0, before treatment) was 0 mm^3. For the same substance, the “tumor volumes of individual tumor bearing animals” value ([9]; day 0, before treatment) was 0 mm^3, the “tumor volumes, Avg” value [9, 10] was 552 mm^3 and the “tumor volumes of individual tumor bearing animals” value [9, 10] was 560 mm^3 and 774 mm^3 and 324 mm^3. The “tumor volumes, Avg” value [9, 11] was 1758 mm^3, the “tumor volumes of individual tumor bearing animals” value [9, 11] was 1946 mm^3 and 1800 mm^3 and 1530 mm^3 and the “tumor volumes, Avg” value [9, 12] was 3674 mm^3. For the same substance, the “tumor volumes of individual tumor bearing animals” value [9, 12] was 3177 mm^3 and 3610 mm^3 and 4234 mm^3, the “percentage inhibition of tumor growth” value ([9]; day 21, as compared to controls, (1-tumor volume-treated/tumor volume control)* 100, intravenously 8.5 µg/100 µl twice a day, 10 days) was 54.7% and the “tumor volumes, Avg” value [9, 13] was 4080 mm^3. The “tumor volumes of individual tumor bearing animals” value [9, 13] was 0 mm^3 and 4939 mm^3 and 7301 mm^3.
